In patent publication US12187662B2, “FOXM1 inhibitor compositions and methods of using the same” (The Board of Trustees of the University of Illinois, priority 2018, dated 2025):
Entries after “also recorded” stand apart in the source; their conditions may differ. Read-outs that look alike come from different tables or passages of the source.

What was measured:
[1] = Pharmacokinetic studies in mice after single s.c. or oral dose; details: for half-life / AUC(0-t): female, CD-1, mouse, plasma; for Blood levels after oral administration / Blood levels after s.c. injection: doses of FIGS. 6A-6B
[2] = system: MCF7 cells; assay: Cell proliferation assay (WST-1), MCF7; format: cell-based, human; details: for IC50: Homo sapiens
Procedure: (§1) All cells were tested for mycoplasma using Real-Time PCR Mycoplasma Detection Kit (Akron Biotech, Boca Raton, FL).
(§2) All assays were performed in triplicate.

[3] = system: DT22 cells; assay: Cell proliferation assay (WST-1), DT22; format: cell-based, human; details: Homo sapiens, DT-22, inhibition of cell proliferation
Procedure: as §1, §2

[4] = biological target: T1, FOXM1 protein (Homo sapiens, UniProt Q08050); assay: Competitive binding of inhibitors to FOXM1 by tr-FRET (Fl-NB-72 probe); details: tr-FRET competition with Fl-NB-72; Ki calculated from IC50 (Cheng-Prusoff)
T1 construct: a terbium donor was attached to purified full length FOXM1 through a streptavidin-biotin linker
T1 sequence (Q08050 1-763): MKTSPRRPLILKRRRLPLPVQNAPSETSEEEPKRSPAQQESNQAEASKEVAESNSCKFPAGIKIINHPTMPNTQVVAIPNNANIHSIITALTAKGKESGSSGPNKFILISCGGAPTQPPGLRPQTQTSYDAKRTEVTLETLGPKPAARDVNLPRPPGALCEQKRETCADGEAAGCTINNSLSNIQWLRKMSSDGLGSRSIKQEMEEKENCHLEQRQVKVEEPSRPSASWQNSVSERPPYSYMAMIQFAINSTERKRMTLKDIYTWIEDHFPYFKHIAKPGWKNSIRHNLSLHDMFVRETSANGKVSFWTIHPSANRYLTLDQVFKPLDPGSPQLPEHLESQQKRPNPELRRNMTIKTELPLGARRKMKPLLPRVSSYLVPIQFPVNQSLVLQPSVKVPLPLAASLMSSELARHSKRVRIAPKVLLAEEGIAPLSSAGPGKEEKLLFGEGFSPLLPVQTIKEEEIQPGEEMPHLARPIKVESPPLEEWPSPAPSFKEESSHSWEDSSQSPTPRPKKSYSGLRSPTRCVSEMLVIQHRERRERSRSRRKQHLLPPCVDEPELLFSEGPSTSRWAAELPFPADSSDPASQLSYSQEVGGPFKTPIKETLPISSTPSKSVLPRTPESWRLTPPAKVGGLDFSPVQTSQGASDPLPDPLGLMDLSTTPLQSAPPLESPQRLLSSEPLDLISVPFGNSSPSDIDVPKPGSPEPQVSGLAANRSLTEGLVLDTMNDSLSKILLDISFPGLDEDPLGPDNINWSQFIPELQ
Procedure: Competitive binding assays of FOXM1 inhibitor binding to FOXM1 by tr-FRET were conducted. All tr-FRET experiments used FRET buffer (20 mM Tris, pH 7.5, 50 mM NaCl, 0.01% NP-40 detergent, 10% glycerol) with 0.3 mg/ml ovalbumin and 0.1 mM butylated hydroxy-anisole added fresh daily. Solutions of the protein, fluorescent probe and inhibitor dilutions were prepared at 3× the final concentrations, the final dilution taking place as they were mixed together on the microtiter plate.
Final concentrations were 10^-5M to 10^-9M, with the last point being buffer only, no inhibitor. Fluorescein-NB-72 (Fl-NB-72) was prepared at 1 mM in DMF and stored at −20° C. It was diluted into plain FRET buffer to give 100 nM in the assay.
Incubations were done in duplicate on black Molecular Devices 96-well microtiter plates. […] To this were added 5 μL of the inhibitor dilutions, mixed and incubated, in the dark, at room temperature, for 1 h. […] Diffusion-enhanced FRET was determined by a parallel incubation without biotin-FOXM1 and subtracted as a background signal. Graphs were prepared using Graph Pad/Prism 4.

[5] = system: DT22 triple negative human breast tumor xenografts; assay: DT22 triple negative breast tumor xenografts in NSG mice; format: in vivo, mouse; details: for Tumor growth in vivo, low doses: 5 or 10 mg/kg s.c. every second or third day; for Growth of DT22-Luc xenograft tumors, low doses: NB-115 s.c. daily 2 or 6 mg/kg, NB-63 s.c. daily 20 mg/kg until day 20, then 10 mg/kg every other day; for Animal body weight: same low-dose regimens as tumor study (FIG. 14B)
Procedure: In vivo breast cancer xenograft studies For examination of the growth of triple-negative DT22 breast tumors, intact female NOD/SCID-gamma (NSG) mice were used. DT-22 cells (1×10^6 cells/mouse) were injected s.c. into the right axial mammary gland. Mice received s.c. injection or oral gavage daily or every second or third day, as indicated, with vehicle or FOXM1 inhibitor compound, and tumor growth was monitored over time.

[6] = system: breast cancer cell lines; assay: Proliferation of breast cancer cell lines (panel, line not specified); format: cell-based, human; details: cell line not specified or several lines
Procedure: as §1, §2

[7] = system: MDA-MB-231 cells; assay: Cell proliferation assay (WST-1), MDA-MB-231; format: cell-based, human; details: Homo sapiens, MDA-MB-231; inhibition of cell proliferation; read-out: IC50 MDA-MB-231
Procedure: as §1, §2

[8] = system: FOXM1 target genes in MCF7 cells; assay: FOXM1 target gene expression by qRT-PCR, MCF7; format: cell-based, human; details: MCF7, 24 h, at IC50 concentration
Procedure: (§3) RNA was extracted from cells and expression of different genes was monitored by qRT-PCR. Assays were run in triplicate. Values are mean±SEM. *, p<0.05; **, p<0.01; ***, p<0.001. RNA isolation and real-time PCR Total RNA was isolated using TRIzol (Invitrogen) and reverse transcribed using […] reverse transcriptase (New England BioLabs). Real-time PCR was performed using SYBRgreen PCR Master Mix (Roche) as described (Bergamaschi et al., Breast Cancer Res., 2014, 16:436). Relative mRNA levels of genes were normalized to the housekeeping gene 36B4, and fold change calculated relative to the vehicle treated samples. Results are the average±SD from at least two independent experiments carried out in triplicate. Primer sequences for the genes studied were obtained from the Harvard Primer Bank. Sequences are available on their website.

[9] = system: FOXM1 target genes in DT22 cells; assay: FOXM1 target gene expression by qRT-PCR, DT22; format: cell-based, human; details: DT22, 24 h, at IC50 concentration
Source text: as §3, with “Real-time PCR was performed using SYBRgreen PCR Master Mix (Roche) as described (Bergamaschi et al., Breast Cancer Res., 2014, 16:436).” left out

[10] = system: tamoxifen-resistant MCF7 breast cancer cells; assay: Proliferation of tamoxifen-resistant MCF7 cells; format: cell-based, human; details: 6 days
Procedure: Values are mean±SD of three separate assays. Cell proliferation assay WST-1 assay (Roche, Basel, Switzerland) was used to quantify cell viability as described (Gong et al., Mol. Cell Endocrinol., 2016, 437:190-200). Absorbance was measured at 450 nm using a VICTOR X5 PerkinElmer 2030 Multilabel Plate Reader. All assays were performed in triplicate.

[11] = MCF7, inhibition of cell proliferation, read-out: IC50 MCF7
[12] = sc, 40 mg/kg, PK s.c. AUC0-48, mice, 40 mg/kg s.c.

CCN(CC)CCCCCCOc1ccc(C(c2ccc(OCCCCCCN(CC)CC)cc2)=C2[C@H]3C[C@@H]4C[C@@H](C[C@H]2C4)C3)cc1 [NB-51, 6,6′-(((((5r,7r)-adamantan-2-ylidene)methylene)bis(4,1-phenylene))bis(oxy))bis(N,N-diethylhexan-1-amine)]
half-life ([1]; po, 20 mg/kg): 1210 min
AUC(0-t) ([1]; po, 20 mg/kg, PK p.o. AUC0-48, mice, 20 mg/kg p.o. (footnote *)): 1.8 µM·h
AUC(0-t) ([1]; sc, 20 mg/kg, PK s.c. AUC0-48, mice, 20 mg/kg s.c. (footnote *)): 4.7 µM·h
IC50 [2, 11]: 700 nM
Improvement in anti-proliferative activity versus monoamine NB-54 ([2]; MCF-7 cells): ~5 fold
IC50 [3]: 1500 nM
Ki [4]: 130 nM

C[N+]1(CCCCCCOc2ccc(C(c3ccc(Cl)cc3)=C3C4C[C@H]5C[C@@H](C4)C[C@H]3C5)cc2)CCCC1 [NB-63]
half-life ([1]; sc): 1500 to 2400 min
AUC(0-t) [1, 12]: 160 µM·h
PK p.o. AUC0-48 ([1]; mice, 40 mg/kg p.o.): too low to measure
Blood levels after oral administration ([1]; mice): very low levels
AUC after s.c. administration relative to NB-55 ([1]; mice, s.c.): approximately 3 fold
Blood levels after s.c. injection ([1]; mice, s.c.): very high blood levels
Tumor growth in vivo, low doses [5]: greatly suppress tumor growth
Growth of DT22-Luc xenograft tumors, low doses [5]: suppress the growth; also recorded: effective in suppressing the growth
Animal body weight [5]: do not affect; also recorded: little impact
IC50 [2, 11]: 5500 nM
IC50 [3]: 6000 nM
Ki [4]: 76 nM

c1cc(C(=C2C3CC4CC(C3)CC2C4)c2ccc(OCCCCCCN3CCCC3)cc2)ccc1OCCCCCCN1CCCC1 [NB-65, 1,1′-((((((5r,7r)-adamantan-2-ylidene)methylene)bis(4,1-phenylene))bis(oxy))bis(hexane-6,1-diyl))dipyrrolidine]
IC50 for inhibition of proliferation of breast cancer cell lines [6]: submicromolar
IC50 [2, 11]: 800 nM
IC50 [3]: 1000 nM
Ki [4]: 190 nM

C[N+]1(CCCCCCOc2ccc(C(=C3C4CC5CC(C4)CC3C5)c3ccc(OCCCCCC[N+]4(C)CCCC4)cc3)cc2)CCCC1 [NB-68, 1,1′-((((((5r,7r)-adamantan-2-ylidene)methylene)bis(4,1-phenylene))bis(oxy))bis(hexane-6,1-diyl))bis(1-methylpyrrolidin-1-ium) diiodide]
half-life ([1]; po, 60 mg/kg): 1110 min
AUC(0-t) ([1]; po, 60 mg/kg, PK p.o. AUC0-48, mice, 60 mg/kg p.o.): 0.18 µM·h
half-life ([1]; sc): 1500 to 2400 min
half-life ([1]; sc, 60 mg/kg): 6560 min
AUC(0-t) ([1]; sc, 60 mg/kg, PK s.c. AUC0-48, mice, 60 mg/kg s.c.): 289 µM·h
Blood levels after oral administration ([1]; mice): very low levels
Blood levels after s.c. injection ([1]; mice, s.c.): very high blood levels
Tumor growth in vivo, low doses [5]: greatly suppress tumor growth
Growth of DT22 tumor xenografts ([5]; s.c., 20 mg/kg every other day for first 10 days then 10 mg/kg every other day): greatly suppress tumor growth
IC50 [2, 11]: 800 nM
IC50 [3]: 700 nM
IC50 [7]: 1700 nM
Ki [4]: 51 nM

CC[N+](C)(CC)CCCCCCOc1ccc(C(c2ccc(OCCCCCC[N+](C)(CC)CC)cc2)=C2C3C[C@H]4C[C@@H](C3)C[C@H]2C4)cc1 [NB-115, 6-(4-(((5r,7r)-adamantan-2-ylidene)(4-((6-(diethyl(methyl)-λ^4-azaneyl)hexyl)oxy)phenyl)methyl)phenoxy)-N,N-diethyl-N-methylhexan-1-aminium diiodide]
half-life ([1]; sc): 1500 to 2400 min
AUC(0-t) [1, 12]: 746 µM·h
Tumor growth in vivo, low doses [5]: greatly suppress tumor growth
Growth of DT22-Luc xenograft tumors, low doses [5]: suppress the growth; also recorded: effective in suppressing the growth
Animal body weight [5]: do not affect; also recorded: little impact
IC50 ([2]; MCF7, read-out: IC50 MCF7): 1100 nM
Expression of ATF3 (gene suppressed by FOXM1) [8]: increased
Expression of FOXM1 stimulated target genes (FOXM1C, AURKB, CCNB1, PLK1) [8]: significantly reduced
Expression of ATF3 (gene suppressed by FOXM1) [9]: increased
Expression of FOXM1 stimulated target genes (FOXM1C, AURKB, CCNB1, PLK1) [9]: significantly reduced

CC/C(=C(\c1ccc(O)cc1)c1ccc(OCCN(C)C)cc1)c1ccccc1 [trans-hydroxytamoxifen, reference compound]
Effect on proliferation of tamoxifen-resistant MCF7 cells [10]: weakly stimulated
